# From US20040242545A1, “Remedy for glaucoma comprising as the active ingredient compound having p13 kinase inhibitory effect” (Santen Phamaceutical Co., Ltd., priority 2001, published 2004)
# How the values were obtained:
# Type in all cases: in vivo
# intraocular pressure [1] = experiment: Intraocular pressure measurement after administration into rabbit anterior chamber; settings: for Difference of intraocular pressure, 2 hours before administration: pre-dose value vs just before administration; for Difference of intraocular pressure, just before administration: reference time point; for Difference of intraocular pressure, 2 hours after administration / Difference of intraocular pressure, 4 hours after administration / Difference of intraocular pressure, 6 hours after administration: vs just before administration; for Maximum breadth of the intraocular pressure reduction: on 6 hours after administration
# Experimental: In order to examine the influence of the compound having a PI3 kinase blocking action upon the intraocular pressure reduction, measurement of intraocular pressure was conducted using an applanation tonometer or a pneumatic applanation tonometer. LY294002 and wortmannin were provided as test compounds. The former compound was dissolved in methanol to give the concentration of 10^-1 M, and thereto was added 2-hydroxypropyl-β-cyclodextrin as a solubilizer. This solution was diluted in physiological saline to give a LY294002 solution having the concentration of 10^-3 M. The amount of used 2-hydroxypropyl-β-cyclodextrin was determined to make the final concentration thereof to be 4×10^-3 M. Wortmannin was dissolved in dimethylsulfoxide to give the concentration of 10^-1 M for use in the test of administration into anterior chamber, and the obtained solution was diluted in physiological saline to give solutions having the concentration of 10^-4 M and 10^-5 M. Furthermore, dissolution of the compound was conducted in dimethylsulfoxide to give the concentration of 10^-1 M for use in the instillation test, and the obtained solution was diluted in physiological saline to give a 0.04284% (10^-3 M) solution in a suspension state. Rabbit intraocular pressure measurement: An electric current source of a tonometer (pneutonometer model 30 classic) was turned on, and calibration was conducted. […] injection needle was attached to a microsyringe, and a test compound solution or a vehicle was aspirated therein. A rabbit positioner made of aluminum for use in administration into anterior chamber was placed on a table made of aluminum. Further, a rabbit positioner made of wood for use in measurement of intraocular pressure was separately placed on the table made of aluminum. Administration into rabbit anterior chamber: A rabbit was placed on a rabbit positioner made of aluminum for use in administration into anterior chamber, and 0.4% oxybuprocaine hydrochloride was instilled to both eyes with one drop. After fixing an eye lid retractor, the bulbar conjunctiva was held with tweezers, and the needle point was passed from corneallimbus into corneal stroma in the […] direction with the depth of about 2 to 3 mm. Thereafter, the needlepoint was pierced into the anterior chamber, where the test compound solution was infused in an amount of 20 μL. […] Following the completion of the administration operation, the rabbit was brought back to the cage. The rabbit was brought out from the cage on two hours before the administration, just before the administration, and on 2, 4 and 6 hours after the administration, and was placed on the positioner made of wood. Oxybuprocaine hydrochloride at the concentration of 0.4% was instilled to both eyes, and intraocular pressure was measured after fixing the eye lid retractor. The vehicle was administered in a similar manner. Using the intraocular pressure just before the administration as a reference, results are shown by difference (mmHg) between the intraocular pressure of the reference and the intraocular pressure at each time point of the measurement. As obvious from Table 1, the intraocular pressure reduction was observed after the administration of LY294002. Maximum breadth of the intraocular pressure reduction (maximum value of the difference between values of the group administered with the vehicle and the group administered with the test compound) was observed on 6 hours after the administration of 10^-3 M LY294002, with the value of 3.7 mmHg.
# intraocular pressure [2] = experiment: Intraocular pressure measurement after instillation to monkey
# Experimental: (§1) In order to examine the influence of the compound having a PI3 kinase blocking action upon the intraocular pressure reduction, measurement of intraocular pressure was conducted using an applanation tonometer or a pneumatic applanation tonometer. Wortmannin was dissolved in dimethylsulfoxide to give the concentration of 10^−1 M for use in the test of administration into anterior chamber, and the obtained solution was diluted in physiological saline to give solutions having the concentration of 10^−4 M and 10^−5 M. Furthermore, dissolution of the compound was conducted in dimethylsulfoxide to give the concentration of 10^−1 M for use in the instillation test, and the obtained solution was diluted in physiological saline to give a 0.04284% (10^−3 M) solution in a suspension state. Monkey intraocular pressure measurement: Measurement of intraocular pressure was conducted using a pneumatic applanation tonometer (Alcon Japan. Ltd.). Test of instillation to monkey: The test compound solution in an amount of 20 μL was instilled to the eye to be administered. The measurement time of the intraocular pressure was on one hour before the administration, just before the administration, and on 2, 4 and 6 hours after the administration. Using the intraocular pressure just before the administration as a reference, results are shown by difference (mmHg) between the intraocular pressure of the reference and the intraocular pressure at each time point of the measurement. As obvious from Table 1, the intraocular pressure reduction was observed after the administration of LY294002. Maximum breadth of the intraocular pressure reduction (maximum value of the difference between values of the group administered with the vehicle and the group administered with the test compound) was observed on 6 hours after the administration of 10^−3 M LY294002, with the value of 3.7 mmHg.
# intraocular pressure [3] = experiment: Intraocular pressure measurement after administration into monkey anterior chamber
# Experimental: as §1, with “Ltd.). Administration into monkey anterior chamber:” for “Ltd.). Test of instillation to monkey:”, “The administration was carried out” for “The test compound solution”, “in accordance with the process for administering” for “in an amount of 20 μL was instilled”, “the rabbit.” for “the eye to be administered.”, “The dosage amount was 10 μL, and the” for “The”
# [4] = 10^−4 M wortmannin, 20 μL, mean of 4
# [5] = 10^−5 M wortmannin, 20 μL, mean of 4
# [6] = instillation, 0.04284% (10^−3 M) wortmannin suspension, 20 μL, vs just before administration, mean of 5
# [7] = 10^−4 M wortmannin, 10 μL, vs just before administration
# [8] = 10^−3 M LY294002, 20 μL, mean of 6
smiles,measurement,setting,value
COC[C@H]1OC(=O)c2coc3c2[C@@]1(C)C1=C(C3=O)[C@@H]2CCC(=O)[C@@]2(C)C[C@H]1OC(C)=O [wortmannin],"Difference of intraocular pressure, 2 hours before administration","intraocular pressure [1]; 10^−4 M wortmannin group, 20 μL, mean of 4",2.2 mmHg
same,"Difference of intraocular pressure, just before administration","intraocular pressure [1]; 10^−4 M wortmannin group, mean of 4",0.0 mmHg
same,"Difference of intraocular pressure, 2 hours after administration",intraocular pressure [1]; [4],−1.2 mmHg
same,"Difference of intraocular pressure, 4 hours after administration",intraocular pressure [1]; [4],−2.8 mmHg
same,"Difference of intraocular pressure, 6 hours after administration",intraocular pressure [1]; [4],−3.0 mmHg
same,Maximum breadth of the intraocular pressure reduction,intraocular pressure [1]; 10^−4 M wortmannin,6.9 mm Hg
same,"Difference of intraocular pressure, 2 hours before administration","intraocular pressure [1]; 10^−5 M wortmannin group, 20 μL, mean of 4",1.2 mmHg
same,"Difference of intraocular pressure, just before administration","intraocular pressure [1]; 10^−5 M wortmannin group, mean of 4",0.0 mmHg
same,"Difference of intraocular pressure, 2 hours after administration",intraocular pressure [1]; [5],−1.5 mmHg
same,"Difference of intraocular pressure, 4 hours after administration",intraocular pressure [1]; [5],−1.0 mmHg
same,"Difference of intraocular pressure, 6 hours after administration",intraocular pressure [1]; [5],0.6 mmHg
same,Maximum breadth of the intraocular pressure reduction,intraocular pressure [1]; 10^−5 M wortmannin,3.3 mmHg
same,Maximum breadth of the intraocular pressure reduction,"intraocular pressure [2]; instillation of wortmannin (0.04284%), on 4 hours after administration",2.8 mmHg
same,"Difference of intraocular pressure, 1 hours before administration","intraocular pressure [2]; instillation, 0.04284% (10^−3 M) wortmannin group, 20 μL, pre-dose value vs just before administration, mean of 5",1.1 mmHg
same,"Difference of intraocular pressure, 2 hours after administration",intraocular pressure [2]; [6],−2.6 mmHg
same,"Difference of intraocular pressure, 4 hours after administration",intraocular pressure [2]; [6],−3.4 mmHg
same,"Difference of intraocular pressure, 6 hours after administration",intraocular pressure [2]; [6],−1.5 mmHg
same,"Difference of intraocular pressure, just before administration","intraocular pressure [2]; instillation, 0.04284% wortmannin group, reference time point, mean of 5",0.0 mmHg
same,"Difference of intraocular pressure, 1 hours before administration","intraocular pressure [3]; 10^−4 M wortmannin group, 10 μL, pre-dose value vs just before administration",0.7 mmHg
same,"Difference of intraocular pressure, just before administration","intraocular pressure [3]; 10^−4 M wortmannin group, reference time point",0.0 mmHg
same,"Difference of intraocular pressure, 2 hours after administration",intraocular pressure [3]; [7],−4.8 mmHg
same,"Difference of intraocular pressure, 4 hours after administration",intraocular pressure [3]; [7],−4.3 mmHg
same,"Difference of intraocular pressure, 6 hours after administration",intraocular pressure [3]; [7],−2.1 mmHg
same,Maximum intraocular pressure reduction,"intraocular pressure [3]; wortmannin (10^−4 M), on 2 hours after administration",4.5 mmHg
"O=c1cc(N2CCOCC2)oc2c(-c3ccccc3)cccc12 [LY294002, 2-(4-morpholinyl)-8-phenyl-4H-1-benzopyran-4-one]","Difference of intraocular pressure, 2 hours after administration",intraocular pressure [1]; [8],−3.2 mmHg
same,"Difference of intraocular pressure, 4 hours after administration",intraocular pressure [1]; [8],−2.7 mmHg
same,"Difference of intraocular pressure, 6 hours after administration",intraocular pressure [1]; [8],−2.1 mmHg
same,Maximum breadth of the intraocular pressure reduction (maximum difference between vehicle group and test compound group),"intraocular pressure [1]; 10^−3 M LY294002, on 6 hours after administration",3.7 mmHg
same,"Difference of intraocular pressure, 2 hours before administration","intraocular pressure [1]; 10^−3 M LY294002 group, 20 μL, mean of 6",1.9 mmHg
same,"Difference of intraocular pressure, just before administration","intraocular pressure [1]; 10^−3 M LY294002 group, mean of 6",0.0 mmHg
